According to patent US7932283B2, “Fungicide N-cyclopropyl-sulfonylamide derivatives” (Bayer Cropscience AG, priority 2006, dated 2011):
Values belong to the molecule of their own block, whether it stands above or below them.

Assay: logP by HPLC on reversed-phase column (C 18), EEC Directive 79/B31 Annex V.A8, methods A and B
Format: physicochemical
Details: reversed-phase HPLC column (C 18), linear gradient 10% to 90% acetonitrile
Protocol: Calibration was carried out using unbranched alkan-2-ones (having 3 to 16 carbon atoms) with known logP values (determination of the logP values by the retention times using linear interpolation between two successive alkanones).

[1] = HPLC reversed-phase C 18, method B: 40° C., 0.1% aqueous formic acid and acetonitrile
[2] = LogP method A: HPLC reversed-phase C 18, 43° C., 0.1% aqueous phosphoric acid / acetonitrile
[3] = LogP method B: HPLC reversed-phase C 18, 40° C., 0.1% aqueous formic acid / acetonitrile
[4] = HPLC reversed-phase C 18, method A: 43° C., 0.1% aqueous phosphoric acid, acetonitrile

Structure (SMILES): COc1nn(C)cc1C(=O)N(C1CC1)S(=O)(=O)c1ccc(Oc2ccccc2)cc1Br [Compound 464]
chromatographic logP [3]: 3.3

Structure (SMILES): Cc1nn(C)c(F)c1C(=O)N(C1CC1)S(=O)(=O)c1ccccc1-c1ccccc1 [Compound 206]
chromatographic logP [4]: 2.96

Structure (SMILES): CC(C)c1c(C(=O)N(C2CC2)S(=O)(=O)c2ccc(O)cc2O)sc(=O)n1C1CC1 [Compound 635]
chromatographic logP [2]: 2.01

Structure (SMILES): COCCn1c(C)c(C(=O)N(C2CC2)S(=O)(=O)c2ccc(C(C)(C)C)cc2)sc1=O [Compound 621]
chromatographic logP [2]: 2.01

Structure (SMILES): Cc1occc1C(=O)N(C1CC1)S(=O)(=O)c1cccc(O)c1 [Compound 3]
chromatographic logP [4]: 3.27

Structure (SMILES): Cc1n[nH]c(C)c1C(=O)N(C1CC1)S(=O)(=O)c1ccc(C(C)(C)C)cc1 [Compound 410]
chromatographic logP [2]: 3.04

Structure (SMILES): Cc1nocc1C(=O)N(C1CC1)S(=O)(=O)c1ccc(Oc2ccccc2)cc1 [Compound 601]
chromatographic logP [3]: 3.7

Structure (SMILES): Cc1nocc1C(=O)N(C1CC1)S(=O)(=O)c1cccc(O)c1O [Compound 599]
chromatographic logP [3]: 3

Structure (SMILES): CCc1nn(C)c(F)c1C(=O)N(C1CC1)S(=O)(=O)c1ccc(O)c(O)c1 [Compound 378]
chromatographic logP [1]: 3.8

Structure (SMILES): Cn1cc(C(=O)N(C2CC2)S(=O)(=O)c2ccc(O)c(O)c2O)c(C(F)(F)F)c1 [Compound 37]
chromatographic logP [1]: 3.9

Structure (SMILES): Cc1cc(C(=O)N(C2CC2)S(=O)(=O)c2ccc(Oc3ccccc3)cc2)nn1C [Compound 76]
chromatographic logP [1]: 3.4

Structure (SMILES): Cn1nc(C2CC2)c(C(=O)N(C2CC2)S(=O)(=O)c2ccc(O)c(O)c2O)c1O [Compound 223]
chromatographic logP [1]: 4.2

Structure (SMILES): Cc1nn(C)c(F)c1C(=O)N(C1CC1)S(=O)(=O)c1ccccc1 [Compound 181]
chromatographic logP [4]: 2.28

Structure (SMILES): Cc1nn(C)c(F)c1C(=O)N(C1CC1)S(=O)(=O)c1ccccc1C#N [Compound 216]
chromatographic logP [4]: 2.07

Structure (SMILES): Cn1nc(C(F)(F)F)c(C(=O)N(C2CC2)S(=O)(=O)c2c(O)cc(O)cc2O)c1F [Compound 363]
chromatographic logP [1]: 3.7

Structure (SMILES): Cn1nc(C(F)(F)F)c(C(=O)N(C2CC2)S(=O)(=O)c2ccccc2I)c1F [Compound 369]
chromatographic logP [1]: 3

Structure (SMILES): Cc1nn(C)c(C)c1C(=O)N(C1CC1)S(=O)(=O)c1ccc(C(F)(F)F)cc1 [Compound 403]
chromatographic logP [2]: 3

Structure (SMILES): CCCOc1nn(C)cc1C(=O)N(C1CC1)S(=O)(=O)c1ccc(Oc2ccc(C)cc2)cc1Br [Compound 293]
chromatographic logP [1]: 4.5

Structure (SMILES): CCOC(=O)c1[nH]c(C)c(C(=O)N(C2CC2)S(=O)(=O)c2ccc(C(C)(C)C)cc2)c1C [Compound 33]
chromatographic logP [4]: 4.13

Structure (SMILES): Cn1nc(C(F)(F)F)c(C(=O)N(C2CC2)S(=O)(=O)c2ccc(Oc3ccccc3)cc2)c1F [Compound 370]
chromatographic logP [1]: 3.9

Structure (SMILES): CCOc1nn(C)cc1C(=O)N(C1CC1)S(=O)(=O)c1ccc(Oc2cccc(Br)c2)cc1Br [Compound 540]
chromatographic logP [3]: 4.2

Structure (SMILES): Cc1nc(C(=O)N(C2CC2)S(=O)(=O)c2ccc(C(F)(F)F)cc2)cs1 [Compound 68]
chromatographic logP [4]: 3.18

Structure (SMILES): Cc1nn(C)c(O)c1S(=O)(=O)N(C(=O)c1c(C(F)(F)F)nn(C)c1F)C1CC1 [Compound 443]
chromatographic logP [3]: 2.6

Structure (SMILES): Cc1nn(C)c(C)c1C(=O)N(C1CC1)S(=O)(=O)c1ccc(O)cc1O [Compound 413]
chromatographic logP [2]: 2.8

Structure (SMILES): CCCOc1nn(C)cc1C(=O)N(C1CC1)S(=O)(=O)c1ccc(Oc2ccccc2O)cc1Br [Compound 291]
chromatographic logP [1]: 4.2

Structure (SMILES): O=C(c1ccsc1I)N(C1CC1)S(=O)(=O)c1ccc(Oc2ccc(Br)cc2)cc1 [Compound 22]
chromatographic logP [1]: 4.9

Structure (SMILES): CCOc1nn(C)cc1C(=O)N(C1CC1)S(=O)(=O)c1ccc(Oc2ccc(O)cc2Cl)cc1O [Compound 543]
chromatographic logP [3]: 4.3

Structure (SMILES): Cc1nn(C)c(N(C)C)c1C(=O)N(C1CC1)S(=O)(=O)c1ccc(O)c(O)c1O [Compound 229]
chromatographic logP [1]: 3.6

Structure (SMILES): COCCn1c(C)c(C(=O)N(C2CC2)S(=O)(=O)c2ccc(O)c(C(F)(F)F)c2)sc1=O [Compound 619]
chromatographic logP [2]: 2.01

Structure (SMILES): CC(C)c1c(C(=O)N(C2CC2)S(=O)(=O)c2ccc(O)c(C(F)(F)F)c2)sc(=O)n1C1CC1 [Compound 633]
chromatographic logP [2]: 3.01

Structure (SMILES): Cc1noc(C)c1C(=O)N(C1CC1)S(=O)(=O)c1ccc(C(C)(C)C)cc1 [Compound 593]
chromatographic logP [2]: 4.03

Structure (SMILES): Cc1cnn(C)c1C(=O)N(C1CC1)S(=O)(=O)c1ccc(Oc2ccc(Br)cc2)cc1 [Compound 661]
chromatographic logP [3]: 4.2

Structure (SMILES): CC(C)c1c(C(=O)N(C2CC2)S(=O)(=O)c2ccc(O)c(O)c2)sc(=O)n1C1CC1 [Compound 634]
chromatographic logP [2]: 3.01

Structure (SMILES): CCOc1nn(C)cc1C(=O)N(C1CC1)S(=O)(=O)c1ccc(Oc2ccc(OC)c(OC)c2)cc1O [Compound 527]
chromatographic logP [3]: 3.2

Structure (SMILES): CC(C)c1nn(C)c(F)c1C(=O)N(C1CC1)S(=O)(=O)c1ccc(C(F)(F)F)cc1O [Compound 97]
chromatographic logP [1]: 4

Structure (SMILES): Cc1ncc(C(=O)N(C2CC2)S(=O)(=O)c2ccc(C(F)(F)F)cc2)s1 [Compound 61]
chromatographic logP [4]: 3.1

Structure (SMILES): COc1nn(C)cc1C(=O)N(C1CC1)S(=O)(=O)c1ccc(Oc2cccc(N(C)C)c2)cc1Br [Compound 466]
chromatographic logP [3]: 3.5

Structure (SMILES): Cn1nc(C(F)(F)F)c(C(=O)N(C2CC2)S(=O)(=O)c2cc(O)c(O)cc2O)c1F [Compound 361]
chromatographic logP [1]: 4

Structure (SMILES): COc1nn(C)cc1C(=O)N(C1CC1)S(=O)(=O)c1csc(O)c1O [Compound 440]
chromatographic logP [3]: 3.1

Structure (SMILES): CCOc1nn(C)cc1C(=O)N(C1CC1)S(=O)(=O)c1ccc(Oc2ccc(C)nc2)cc1Br [Compound 526]
chromatographic logP [3]: 2.3

Structure (SMILES): CCCOc1nn(C)cc1C(=O)N(C1CC1)S(=O)(=O)c1ccc(Oc2ccc(O)cc2)cc1Br [Compound 295]
chromatographic logP [1]: 4.5

Structure (SMILES): Cn1nc(C(F)(F)F)c(C(=O)N(C2CC2)S(=O)(=O)c2ccccc2OC(F)(F)F)c1F [Compound 365]
chromatographic logP [1]: 3.2

Structure (SMILES): O=C(c1cccnc1O)N(C1CC1)S(=O)(=O)c1ccc(Oc2ccccc2)cc1 [Compound 646]
chromatographic logP [3]: 3.7

Structure (SMILES): Cn1ncc(I)c1C(=O)N(C1CC1)S(=O)(=O)c1cccc(O)c1O [Compound 662]
chromatographic logP [3]: 2.8

Structure (SMILES): CCc1c(C(=O)N(C2CC2)S(=O)(=O)c2ccc(O)c(O)c2)sc(=O)n1C1CC1 [Compound 630]
chromatographic logP [2]: 4.08

Continued, values first:

chromatographic logP [1]: 3.2
Structure (SMILES): COc1c(C(=O)N(C2CC2)S(=O)(=O)c2ccc(O)c(O)c2O)c(C)nn1C [Compound 230]

chromatographic logP [2]: 2.01
Structure (SMILES): COCCn1c(C)c(C(=O)N(C2CC2)S(=O)(=O)c2ccc(O)cc2O)sc1=O [Compound 620]

chromatographic logP [1]: 2.5
Structure (SMILES): CCc1nn(C)c(F)c1C(=O)N(C1CC1)S(=O)(=O)c1ccc(OC)c(OC)c1 [Compound 386]

chromatographic logP [1]: 4.6
Structure (SMILES): CCCOc1nn(C)cc1C(=O)N(C1CC1)S(=O)(=O)c1ccc(Oc2ccc(C(F)(F)F)cc2)cc1Br [Compound 298]

chromatographic logP [1]: 3.3
Structure (SMILES): Cn1cc(C(=O)N(C2CC2)S(=O)(=O)c2cccc(O)c2O)c(C(F)(F)F)c1 [Compound 36]

chromatographic logP [3]: 2
Structure (SMILES): COc1nn(C)cc1C(=O)N(C1CC1)S(=O)(=O)c1ccc(Oc2ccc(C)nc2)cc1Br [Compound 458]

chromatographic logP [2]: 4.82
Structure (SMILES): CCc1onc(C(C)C)c1C(=O)N(C1CC1)S(=O)(=O)c1ccc(O)c(C(F)(F)F)c1 [Compound 594]

chromatographic logP [1]: 3.4
Structure (SMILES): CC(C)c1nn(C)c(F)c1C(=O)N(C1CC1)S(=O)(=O)c1ccccc1C(F)(F)F [Compound 98]

chromatographic logP [4]: 2.54
Structure (SMILES): Cc1nn(C)c(F)c1C(=O)N(C1CC1)S(=O)(=O)c1ccc([N+](=O)[O-])cc1 [Compound 185]

chromatographic logP [3]: 3.9
Structure (SMILES): COc1nn(C)cc1C(=O)N(C1CC1)S(=O)(=O)c1ccc(Oc2ccc(C(F)(F)F)cc2)cc1Br [Compound 475]

chromatographic logP [4]: 2.35
Structure (SMILES): COc1ccc(S(=O)(=O)N(C(=O)c2c(C)nn(C)c2F)C2CC2)cc1 [Compound 184]

chromatographic logP [4]: 2.59
Structure (SMILES): Cc1ccc(S(=O)(=O)N(C(=O)c2c(C)nn(C)c2F)C2CC2)cc1 [Compound 183]

chromatographic logP [1]: 3.8
Structure (SMILES): Cc1cc(C(=O)N(C2CC2)S(=O)(=O)c2cccc(O)c2O)c(C)o1 [Compound 5]

chromatographic logP [4]: 3.58
Structure (SMILES): O=C(c1cc(Br)c(Br)o1)N(C1CC1)S(=O)(=O)c1ccccc1O [Compound 1]

chromatographic logP [2]: 4.37
Structure (SMILES): CCc1onc(C(C)C)c1C(=O)N(C1CC1)S(=O)(=O)c1ccc(C(F)(F)F)cc1 [Compound 590]

chromatographic logP [3]: 3.6
Structure (SMILES): Cc1cnn(C)c1C(=O)N(C1CC1)S(=O)(=O)c1ccc(Oc2ccccc2)cc1 [Compound 660]

chromatographic logP [1]: 3.6
Structure (SMILES): CCc1nn(C)c(F)c1C(=O)N(C1CC1)S(=O)(=O)c1c(O)cc(O)cc1O [Compound 379]

chromatographic logP [2]: 2.01
Structure (SMILES): COCCn1c(C)c(C(=O)N(C2CC2)S(=O)(=O)c2ccc(C(F)(F)F)cc2)sc1=O [Compound 610]

chromatographic logP [2]: 3.01
Structure (SMILES): Cc1c(C(=O)N(C2CC2)S(=O)(=O)c2ccc(O)c(C(F)(F)F)c2)sc(=O)n1Cc1ccccc1 [Compound 625]

chromatographic logP [1]: 4.3
Structure (SMILES): COc1nn(C)c(O)c1C(=O)N(C1CC1)S(=O)(=O)c1ccc(Oc2ccc(Br)cc2)cc1 [Compound 284]

chromatographic logP [4]: 3.2
Structure (SMILES): Cc1nc(C(F)(F)F)c(C(=O)N(C2CC2)S(=O)(=O)c2ccccc2O)s1 [Compound 59]

chromatographic logP [2]: 3.01
Structure (SMILES): Cc1c(C(=O)N(C2CC2)S(=O)(=O)c2ccc(O)c(O)c2)sc(=O)n1Cc1ccccc1 [Compound 626]

chromatographic logP [3]: 3.8
Structure (SMILES): CCOc1nn(C)cc1C(=O)N(C1CC1)S(=O)(=O)c1ccc(OC2=CC(N(C)C)=CCC2)cc1O [Compound 532]

chromatographic logP [1]: 4.6
Structure (SMILES): CCCOc1nn(C)cc1C(=O)N(C1CC1)S(=O)(=O)c1ccc(Oc2cccc(Br)c2)cc1Br [Compound 299]

chromatographic logP [2]: 2.3
Structure (SMILES): O=C(c1cccnc1)N(C1CC1)S(=O)(=O)c1cccc(O)c1 [Compound 642]

chromatographic logP [1]: 4.1
Structure (SMILES): CC(F)c1nn(C)cc1C(=O)N(C1CC1)S(=O)(=O)c1ccc(Oc2ccc(Br)cc2)cc1 (centres unmarked) [Compound 122]
